In brackets after ≈: the same amount, converted by molar mass.
Columns and labels:
[1] = tested on: Mycobacterium tuberculosis; assay: Antitubercular activity against XDR Mycobacterium tuberculosis; assay type: functional
[2] = Inhibition of Mycobacterium tuberculosis isocitrate lyase
[3] = tested on: Mycobacterium tuberculosis; assay: Antimycobacterial activity against Mycobacterium tuberculosis H37Rv assessed as reduction in bacterial cell growth by resazurin reduction method; assay type: functional

Molecule | MIC [1] | IC50 [2] | MIC [3]
CC(=O)NC[C@H]1CN(c2ccc(N3CCOCC3)c(F)c2)C(=O)O1 [LINEZOLID] | 0.125 µg/mL (≈ 0.371 µM) | – | –
O=c1c(O)c(-c2ccc(O)c(O)c2)oc2cc(O)cc(O)c12 [QUERCETIN] | – | 3.57 µM | –
H-GWLDVAKKIGKAAFNVAKNFI-OH | < 0.97 µg/mL | – | < 0.98 µg/mL
